The text below walks through data of PubChem BioAssay (NCI).

Molecules are shown by their SMILES.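 The compound was tested at five concentrations on cells cultured in 96-well plates, with a 48-hour exposure period. At the GI50, growth is halved. Definition used: TGI = concentration required for complete inhibition of growth.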

Among the test systems are A498 renal; CAKI-1 renal; DU-145 prostate; HL-60(TB) leukemia; OVCAR-8 ovarian; PC-3 prostate; SF-295 CNS; SK-OV-3 ovarian; SW-620 colon; UACC-62 melanoma.
What all share (assay): inhibition of tumour cell growth, NCI panel, 48 h

On to `CC1=C(C(=O)Nc2ccc(F)c(Cl)c2)C(c2ccccc2O)NC(=O)N1` (stereo not given), for which the GI50 is over 100 µM in the assay with A498 renal; over 100 µM with CAKI-1 renal; over 100 µM in the assay on DU-145 prostate; 59.6 µM with HL-60(TB) leukemia; over 100 µM with OVCAR-8 ovarian; 58.8 µM with PC-3 prostate. For the same compound, the GI50 in the assay on SF-295 CNS was 94.5 µM; in the assay with SK-OV-3 ovarian it was over 100 µM; with SW-620 colon, over 100 µM; in the assay on UACC-62 melanoma, 49 µM. The TGI with A498 renal, in the assay on CAKI-1 renal, in the assay with DU-145 prostate, in the assay on HL-60(TB) leukemia, in the assay on OVCAR-8 ovarian and in the assay with PC-3 prostate was over 100 µM in each case. Further, the TGI in the assay with SF-295 CNS, in the assay on SK-OV-3 ovarian, in the assay with SW-620 colon and with UACC-62 melanoma was over 100 µM in each case.

For `O=C1CSC(c2ccccc2O)N1c1nnc(Cn2ccnc2)o1` (stereo not given), the GI50 with A498 renal is 21 µM; in the assay on CAKI-1 renal, 2.19 µM; in the assay on DU-145 prostate it was 17.5 µM; in the assay on HL-60(TB) leukemia, 1.46 µM; in the assay with OVCAR-8 ovarian, 17.8 µM; with PC-3 prostate, 6.2 µM. In addition, the GI50 in the assay with SF-295 CNS is 3.11 µM; in the assay on SK-OV-3 ovarian it was 27.6 µM; in the assay on SW-620 colon, 5.14 µM; in the assay with UACC-62 melanoma, 11.5 µM. Besides, the TGI is 46 µM in the assay on A498 renal; 10.2 µM with CAKI-1 renal; 56.6 µM with DU-145 prostate; over 100 µM with HL-60(TB) leukemia; over 100 µM in the assay with OVCAR-8 ovarian; 30.4 µM with PC-3 prostate. Further, the TGI in the assay on SF-295 CNS is over 100 µM; in the assay on SK-OV-3 ovarian, over 100 µM; with SW-620 colon it was 32.4 µM; in the assay with UACC-62 melanoma, 26 µM.

In the case of `COc1cc(/C=C/[N+](=O)[O-])cc(OC)c1OC`, the GI50 with A498 renal was 3.31 µM; in the assay with CAKI-1 renal, 1.49 µM; in the assay with DU-145 prostate, 2.69 µM; in the assay on HL-60(TB) leukemia it was 4.95 µM; with OVCAR-8 ovarian, 3.04 µM; with PC-3 prostate, 3.25 µM. The GI50 in the assay on SF-295 CNS is 8.52 µM; in the assay on SK-OV-3 ovarian it was 4.79 µM; in the assay with SW-620 colon it was 1.71 µM; with UACC-62 melanoma, 1.72 µM. In addition, the TGI was 14.6 µM with A498 renal; 7.39 µM in the assay on CAKI-1 renal; 6.31 µM with DU-145 prostate; 55.9 µM in the assay on HL-60(TB) leukemia; 12.1 µM in the assay with OVCAR-8 ovarian; 10.6 µM in the assay with PC-3 prostate. In addition, the TGI was determined as 23.8 µM in the assay on SF-295 CNS, 16.1 µM in the assay on SK-OV-3 ovarian, 4.16 µM in the assay with SW-620 colon and 3.49 µM in the assay with UACC-62 melanoma.

On to `Oc1c(Cl)cc(Cl)c2cccnc12`, for which the GI50 is 2.92 µM in the assay on A498 renal; 2.71 µM in the assay on CAKI-1 renal; 4.51 µM in the assay on DU-145 prostate; 2.87 µM in the assay on HL-60(TB) leukemia; 2.75 µM with OVCAR-8 ovarian; 3.94 µM in the assay on PC-3 prostate. Moreover, the GI50 in the assay with SF-295 CNS was 1.96 µM; in the assay with SK-OV-3 ovarian, 3.71 µM; in the assay with SW-620 colon it was 4.47 µM; in the assay on UACC-62 melanoma it was 1.79 µM. In addition, the TGI with A498 renal was 12.1 µM; with CAKI-1 renal it was 19 µM; in the assay with DU-145 prostate it was 45.7 µM; in the assay with HL-60(TB) leukemia it was 6.65 µM; in the assay on OVCAR-8 ovarian it was 54.6 µM; in the assay on PC-3 prostate it was over 100 µM. The TGI in the assay on SF-295 CNS was over 100 µM; in the assay with SK-OV-3 ovarian it was 16.2 µM; in the assay with SW-620 colon, 18.4 µM; with UACC-62 melanoma, 5.04 µM.

Regarding `N#CC(C#N)=C(N)/C(C#N)=C/c1ccc2[nH]ccc2c1`, the TGI with A498 renal, with CAKI-1 renal, in the assay with DU-145 prostate, in the assay with HL-60(TB) leukemia, in the assay on OVCAR-8 ovarian and in the assay on PC-3 prostate was over 100 µM each time. In addition, the TGI in the assay with SF-295 CNS, in the assay with SK-OV-3 ovarian, with SW-620 colon and in the assay with UACC-62 melanoma was over 100 µM each time.

With `COc1cc2c(c(OC)c1OC)-c1c(cc3c(c1OC)OCO3)CC(C)C(C)(O)C2OC(=O)c1ccccc1` (stereo not given), the TGI is over 100 µM with A498 renal; over 100 µM in the assay on CAKI-1 renal; over 100 µM in the assay with DU-145 prostate; 48.7 µM in the assay with HL-60(TB) leukemia; over 100 µM in the assay on OVCAR-8 ovarian; over 100 µM in the assay with PC-3 prostate. For the same compound, the TGI with SF-295 CNS, with SK-OV-3 ovarian, in the assay on SW-620 colon and in the assay on UACC-62 melanoma was over 100 µM each time.

As to `O=NN(CCCl)C(=O)NC1CCC(=O)NC1=O` (stereo not given), the TGI in the assay on A498 renal was 470 µM; in the assay with CAKI-1 renal, 659 µM; with DU-145 prostate, 1060 µM; in the assay with HL-60(TB) leukemia it was 359 µM; with OVCAR-8 ovarian, 293 µM; in the assay with PC-3 prostate it was over 1250 µM. For the same compound, the TGI with SF-295 CNS is 331 µM; with SK-OV-3 ovarian it was over 1010 µM; in the assay on SW-620 colon it was 270 µM; with UACC-62 melanoma it was 192 µM.

For the compound `O=C1/C(=C/c2cccc(Br)c2)COc2ccc(O)c(O)c21`, the GI50 in the assay on A498 renal is 2.01 µM; in the assay with CAKI-1 renal it was 1.21 µM; in the assay on DU-145 prostate, 1.42 µM; in the assay with HL-60(TB) leukemia it was 0.969 µM; in the assay on OVCAR-8 ovarian it was 1.06 µM; in the assay with PC-3 prostate it was 0.79 µM. Moreover, the GI50 with SF-295 CNS was 2.75 µM; in the assay on SK-OV-3 ovarian, 3.12 µM; in the assay on SW-620 colon it was 1.06 µM; in the assay with UACC-62 melanoma it was 1.64 µM. Also, the TGI was found to be 4.74 µM in the assay with A498 renal; 2.47 µM with CAKI-1 renal; 2.99 µM in the assay with DU-145 prostate; 4.05 µM in the assay on HL-60(TB) leukemia; 2.86 µM in the assay with OVCAR-8 ovarian; 3.45 µM in the assay on PC-3 prostate. Also, the TGI stood at 7.39 µM in the assay with SF-295 CNS, 10.6 µM with SK-OV-3 ovarian, 3.52 µM in the assay on SW-620 colon and 3.14 µM in the assay on UACC-62 melanoma.

For `CCN(CC)CCCC(C)Nc1c(-c2ccccc2)cnc2cc(Cl)ccc12` (stereo not given), the GI50 in the assay on A498 renal is 2.71 µM; with CAKI-1 renal it was 2.12 µM; in the assay on DU-145 prostate, 13 µM; with HL-60(TB) leukemia, 5.29 µM; in the assay with OVCAR-8 ovarian, 11.9 µM; with PC-3 prostate it was 14.9 µM. The GI50 with SF-295 CNS is 2.78 µM; in the assay on SK-OV-3 ovarian, 15.3 µM; with SW-620 colon, 9.04 µM; with UACC-62 melanoma, 2.37 µM. Also, the TGI with A498 renal is 13.8 µM; in the assay on CAKI-1 renal, 10.9 µM; in the assay on DU-145 prostate it was 31.3 µM; with HL-60(TB) leukemia, 23.8 µM; with OVCAR-8 ovarian, 32.3 µM; in the assay with PC-3 prostate, 60.4 µM. Moreover, the TGI with SF-295 CNS came to 9 µM; in the assay with SK-OV-3 ovarian it was 33.5 µM; with SW-620 colon, 22.8 µM; with UACC-62 melanoma, 6.26 µM.

`Cc1cc(NC(=O)c2cnc(N3CCN(CCOCCOCCOCCOCCC(=O)N[C@H](C(=O)N4C[C@H](O)C[C@H]4C(=O)N[C@@H](C)c4ccc(-c5scnc5C)cc4)C(C)(C)C)CC3)cn2)c2ncccc2c1`: the GI50 with A498 renal is 5.06 µM; in the assay with CAKI-1 renal it was 9.33 µM; in the assay with DU-145 prostate it was 6.16 µM; with HL-60(TB) leukemia it was 2.3 µM; with OVCAR-8 ovarian, 3.38 µM; in the assay with PC-3 prostate it was 2.85 µM. For the same compound, the GI50 is 2.23 µM with SF-295 CNS, 8.5 µM in the assay on SK-OV-3 ovarian, 2.38 µM in the assay with SW-620 colon and 1.71 µM in the assay on UACC-62 melanoma. Besides, the TGI is 29 µM in the assay with A498 renal; over 100 µM with CAKI-1 renal; over 100 µM in the assay with DU-145 prostate; 5.71 µM in the assay on HL-60(TB) leukemia; over 100 µM in the assay on OVCAR-8 ovarian; 10.4 µM with PC-3 prostate. Also, the TGI is 6.31 µM in the assay on SF-295 CNS, over 100 µM in the assay on SK-OV-3 ovarian, 5.65 µM in the assay on SW-620 colon and 3.36 µM with UACC-62 melanoma.
